Experimental data as given in patent US20150031686A1, “PHENYL-OXAZOLYL DERIVATIVES, PREPARATION METHOD THEREOF, AND RELATED APPLICATION OF THE PHENYL-OXAZOLYL DERIVATIVES AS AN IMPDH INHIBITOR” (INSTITUTE OF MEDICINAL BIOTECHNOLOGY, CHINESE ACADEMY OF …, priority 2012, published 2015).
Converted amounts (≈) assume the structure as drawn.

Tested on: Coxsackie virus type B3 (COX-B3)
Test: Anti-Coxsackie virus type B3 (COX-B3) activity, CPE in Vero cells
Type: cell-based
Settings: Reed-Muench
Procedure: With Vero (African green monkey kidney) cells as viral hosts, inhibitory effects of the compounds of present invention on the grades of pathological lesions by coxsackievirus B3 (COX-B3), B6 (COX-B6) viruses in Vero cells were determined. The measured results of viral inhibitory activity of the compounds are shown in Table 3 and Table 4; wherein RBV is the control drug ribavirin. The inhibitory activities of the measured compounds against coxsackievirus B3, B6 were stronger than the control.
Screening of Anti-B3, B6 Type Coxsackie Viruses (COX-B3, COX-B6) Activity of the Samples
Prepare stock solutions of COX-B3 (or COX-B6) virus strains as well as tested compounds in DMSO before use. Before tests, dilute the stock solution with culture solution into a certain concentration and then dilute 3 times to make a total of eight dilutions. Use ribavirin (RBV) as positive control. Test procedures are as follows: seed Vero cells into 96-well culture plates, infect with 10^−5 Coxsackie virus of B3 (or B6) type, 24 hours later; adsorb subsequently for 2 hours, then discard the virus solution, add in the sample compounds and the positive control according to the abovementioned dilutions, set cell control wells and virus control wells simultaneously. When the cytopathic effect (CPE) of cells in the virus control wells reach 4+, observe CPE of the cells in each group. Use Reed-Muench method to calculate 50% inhibitory concentration (IC50) of the sample compounds against coxsackie virus B3 (or B6) type.

| IC50 [µg/mL] | Structure (SMILES) |
| --- | --- |
| 0.45 (≈ 1 µM) | COc1cc(NCc2ccc(-c3ccc(C(F)(F)F)cc3Cl)o2)ccc1-c1cnco1 [Compound 104, N-[5-(2-chloro-4-trifluoromethylphenyl)furan-2-ylmethyl]-3-methoxy-4-oxazol-5-yl aniline] |
| 0.44 (≈ 1.31 µM) | COc1cc(NCc2ccc3sccc3c2)ccc1-c1cnco1 [Compound 106, N-(benzothien-5-ylmethyl)-3-methoxy-4-oxazol-5-yl aniline] |
| 0.33 (≈ 0.857 µM) | COc1cc(NCCc2cc3cc(Cl)ccc3s2)ccc1-c1cnco1 [Compound 82, N-[2-(5-chlorobenzathien-2-yl)-ethyl]-3-methoxy-4-(oxazol-5-yl) aniline] |
| 0.63 (≈ 1.8 µM) | COc1cc(NCC2=COc3ccc(O)cc3C2)ccc1-c1cnco1 [Compound 92, 3-(3-methoxy-4-oxazol-5-ylanilino) methyl-4-H-benzopyran-6-ol] |
| 2.47 (≈ 8.72 µM) | COc1cc(NCc2cccn2C)ccc1-c1cnco1 [Compound 51, N-(1-methyl-1H-pyrrol-2-ylmethyl)-3-methoxy-4-(oxazol-5-yl) aniline] |
| 155 (≈ 497 µM) | COc1cc(NCCCS(=O)(=O)O)ccc1-c1cnco1 [Compound 70, 3-[3-methoxy-4-(oxazol-5-yl)-anilino]-1-propanesulfonic acid] |
| 0.35 (≈ 0.877 µM) | COc1cc(CN(C)Cc2csc3ccc(Cl)cc23)ccc1-c1cnco1 [Compound 87, N-methyl-N-(5-chlorobenzothien-3-ylmethyl)-3-methoxy-4-(oxazol-5-yl) benzylamine] |
| 0.5 (≈ 1.59 µM) | COCc1ccc(CNc2cc(-c3cnco3)ccc2OC)o1 [Compound 48, N-(5-methoxymethylfuran-2-ylmethyl)-2-methoxy-5-(oxazol-5-yl) aniline] |
| 0.34 (≈ 0.976 µM) | COc1cc(CNCc2ccc3c(cnn3C)c2)ccc1-c1cnco1 [Compound 86, N-(1-methyl-1H-indazole-5-methyl)-3-methoxy-4-(oxazol-5-yl) benzylamine] |
| 0.34 (≈ 0.768 µM) | COc1cc(CN(Cc2cc3cc(C)ccc3s2)S(C)(=O)=O)ccc1-c1cnco1 [Compound 84, N-(3-methoxy-4-oxazol-5-yl-benzyl)-N-(5-methyl-benzothien-2-ylmethyl)-methylsulfonamide] |
| 0.35 (≈ 1.05 µM) | COc1cc(NCc2ccc(SC)s2)ccc1-c1cnco1 [Compound 102, N-(5-methylthiothien-2-ylmethyl)-3-methoxy-4-(oxazol-5-yl) aniline] |
| 0.26 (≈ 0.815 µM) | Cc1ccc(CNCc2ccc(-c3cnco3)c(Cl)c2)s1 [Compound 89, N-(5-methylthien-2-ylmethyl)-3-chloride-4-oxazol-5-yl benzylamine] |
| 0.46 (≈ 1.44 µM) | COc1ccc(-c2cnco2)cc1NCc1coc2ccccc12 [Compound 50, N-(benzofuran-3-ylmethyl)-2-methoxy-5-(oxazol-5-yl) aniline] |
| 0.68 (≈ 1.72 µM) | COc1cc(NCc2c3ccccc3nc3ccc(C)cc23)ccc1-c1cnco1 [Compound 94, N-(2-methylacridine-9-methyl)-3-methoxy-4-(oxazol-5-yl) aniline] |
| 0.56 (≈ 1.17 µM) | COc1cc(NCc2ccc(C(=O)Nc3cc(OC)c(OC)c(OC)c3)o2)ccc1-c1cnco1 [Compound 47, N-2-(3,4,5-trimethoxyphenylaminocarbonyl) furan-5-ylmethyl 3-methoxy-4-(oxazol-5-yl)aniline] |
| 0.36 (≈ 1.07 µM) | COc1cc(CNCc2cccc3nonc23)ccc1-c1cnco1 [Compound 78, N-(benzo[1,2,5]oxadiazol-4-ylmethyl)-3-methoxy-4(oxazol-5-yl) benzylamine] |
| 0.55 (≈ 1.45 µM) | COc1cc(NCc2c3ccccc3cc3ccccc23)ccc1-c1cnco1 [Compound 95, N-(anthracen-9-ylmethyl) 3-methoxy-4-(oxazol-5-yl) aniline] |
| 0.88 (≈ 2.42 µM) | COc1cc(CNCc2ccc(Br)o2)ccc1-c1cnco1 [Compound 93, N-(5-bromofuran-2-ylmethyl)-3-methoxy-4-(oxazol-5-yl) benzylamine] |
| 0.88 (≈ 2.52 µM) | COc1ccc(-c2cnco2)cc1NCc1ccc(Br)o1 [Compound 45, N-(5-bromofuran-2-ylmethyl)-2-methoxy-5-(oxazol-5-yl) aniline] |

More lines, now with the values behind:

| Structure (SMILES) | IC50 [µg/mL] |
| --- | --- |
| COc1cc(NCc2nc3ccccc3s2)ccc1-c1cnco1 [Compound 8, N-(benzothiazol-2-ylmethyl)-3-methoxy-4-(oxazol-5-yl) aniline] | 0.45 (≈ 1.33 µM) |
| COc1cc(NCc2csc(Br)c2)ccc1-c1cnco1 [Compound 15, N-(5-bromothien-3-ylmethyl)-3-methoxy-4-(oxazol-5-yl) aniline] | 0.46 (≈ 1.26 µM) |
| COc1ccc(-c2cnco2)cc1/N=C/c1ccsc1 [Compound 39, N-(thien-3-ylmethylene)-2-methoxy-5-(oxazol-5-yl)-aniline] | 11.1 (≈ 39.1 µM) |
| COc1ccc(-c2cnco2)cc1NCc1csc2c(C)c(Br)ccc12 [Compound 40, N-(6-bromo-7-methyl-benzothien-3-ylmethyl)-2-methoxy-5-oxazol-5-yl aniline] | 0.26 (≈ 0.606 µM) |
| COc1ccc(-c2cnco2)cc1NCC1CCOCC1 [Compound 37, N-(tetrahydropyran-4-ylmethyl)-2-methoxy-5-oxazol-5-yl aniline] | 0.63 (≈ 2.18 µM) |
| COc1ccc(-c2cnco2)cc1NCc1ccsc1 [Compound 31, N-(thien-3-ylmethyl)-2-methoxy-5-(oxazol-5-yl) aniline] | 0.88 (≈ 3.07 µM) |
| COc1cc(CNc2ccc(-c3cnco3)c(OC)c2)cs1 [Compound 18, N-(5-methoxy-thien-3-ylmethyl)-3-methoxy-4(oxazol-5-yl) aniline] | 0.25 (≈ 0.79 µM) |
| COc1ccc(-c2cnco2)cc1NCc1cc2cc(Cl)ccc2s1 [Compound 30, N-(5-chlorobenzothien-2-ylmethyl)-2-methoxy-5-(oxazol-5-yl) aniline] | 0.54 (≈ 1.46 µM) |
| COc1ccc(-c2cnco2)cc1NCc1ccc(CBr)s1 [Compound 25, N-(5-bromomethylthien-2-ylmethyl)-2-methoxy-5-(oxazol-5-yl) aniline] | 0.53 (≈ 1.4 µM) |
| COc1cc(NCc2c(Cl)nc(Cl)nc2Cl)ccc1-c1cnco1 [Compound 43, N-(2,4,6-trichloropyrimidin-5-ylmethyl)-3-methoxy-4-(oxazol-5-yl) aniline] | 1.03 (≈ 2.67 µM) |
| COc1cc(NCc2csc(Cl)c2)ccc1-c1cnco1 [Compound 14, N-(5-chlorothien-3-ylmethyl)-3-methoxy-4-(oxazol-5-yl) aniline] | 0.44 (≈ 1.37 µM) |
| COc1cc(N(C)Cc2csc(C)c2)ccc1-c1cnco1 [Compound 12, N-methyl-N-(5-methylthien-3-ylmethyl)-3-methoxy-4-(oxazol-5-yl) aniline] | 0.23 (≈ 0.732 µM) |
| COc1cc(NCc2csc(-c3ccccc3)c2)ccc1-c1cnco1 [Compound 16, N-(5-phenylthien-3-ylmethyl)-3-methoxy-4-(oxazol-5-yl) aniline] | 0.45 (≈ 1.24 µM) |
| COc1ccc(-c2cnco2)cc1NCc1csc(-c2ccccc2)c1 [Compound 36, N-(5-phenylthien-3-ylmethyl)-2-methoxy-5-(oxazol-5-yl) aniline] | 0.59 (≈ 1.63 µM) |
| COc1ccc(-c2cnco2)cc1NCC1CCN(C)CC1 [Compound 33, N-(2-methoxy-5-oxazol-5-ylphenyl)-1-methylpiperidin-4-yl methylamine] | 0.64 (≈ 2.12 µM) |
| COc1ccc(-c2cnco2)cc1NCc1c(C)noc1C [Compound 23, N-(3,5-dimethylisoxazol-4-ylmethyl)-2-methoxy-5-(oxazol-5-yl) aniline] | 0.76 (≈ 2.54 µM) |
